Some test systems named below: HOP-62 NSCLC; TK-10 renal; LOX IMVI melanoma; MCF7 breast; COLO 205 colon; SK-MEL-5 melanoma; OVCAR-5 ovarian; SR leukemia; NCI-H23 lung; HCC-2998 colon; MDA-N; SW-620 colon; OVCAR-8 ovarian; A549 NSCLC; ACHN renal; HCT-116 colon; HL-60(TB) leukemia.
What all share (test): NCI tumour cell line growth inhibition, 48 h

Consider 9 compounds from PubChem BioAssay (NCI).

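96-well plates; 48 h exposure; 5 concentrations. Endpoints by linear interpolation between flanking doses. Not reached: highest tested concentration assigned. TGI is the concentration that stops growth completely.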 A value given as a limit tells only on which side of the number the result lay.

With `COC(=O)/C=C1\C(CO[Si](C)(C)C(C)(C)C)OC(n2ccc(=O)[nH]c2=O)C1O` (centres undefined), the TGI is above 31.1 µM in the assay on HOP-62 NSCLC; above 100 µM in the assay with TK-10 renal; 15.5 µM in the assay with LOX IMVI melanoma; 31.4 µM with MCF7 breast; 10.3 µM in the assay with COLO 205 colon; 21.7 µM with SK-MEL-5 melanoma. The TGI is 50.9 µM in the assay with OVCAR-5 ovarian; 26.4 µM in the assay on SR leukemia; 55.3 µM with NCI-H23 lung; 26.2 µM in the assay on HCC-2998 colon; above 66.4 µM in the assay with MDA-N; above 100 µM in the assay with SW-620 colon. Further, the TGI was above 100 µM in the assay with OVCAR-8 ovarian, 82.9 µM in the assay with A549 NSCLC, above 65.5 µM with ACHN renal and 16.9 µM in the assay with HCT-116 colon.

For the compound `O[C@@H]1[C@H](OC2c3ccccc3-c3ccccc32)[C@H](OCc2ccccc2)[C@@H]2OC[C@H]1O2`, the TGI in the assay with HOP-62 NSCLC was 80 µM; with TK-10 renal, above 100 µM; with LOX IMVI melanoma it was above 100 µM; in the assay with MCF7 breast, above 100 µM; in the assay with COLO 205 colon, above 100 µM; in the assay with SK-MEL-5 melanoma, above 100 µM. For the same compound, the TGI with OVCAR-5 ovarian, with NCI-H23 lung, in the assay with HCC-2998 colon, with MDA-N, with HL-60(TB) leukemia and in the assay on SW-620 colon was above 100 µM in each case. In addition, the TGI with OVCAR-8 ovarian, with A549 NSCLC, in the assay with ACHN renal and in the assay with HCT-116 colon was above 100 µM each time.

As for `COc1ccc(OC/C(N)=N/NC(=O)c2ccncc2)cc1`, the TGI with HOP-62 NSCLC, in the assay with TK-10 renal, in the assay on LOX IMVI melanoma, in the assay with MCF7 breast, with COLO 205 colon and in the assay on OVCAR-5 ovarian was above 100 µM in each case. The TGI with NCI-H23 lung, with HCC-2998 colon, with MDA-N, in the assay on HL-60(TB) leukemia, with SW-620 colon and in the assay with OVCAR-8 ovarian was above 100 µM throughout. For the same compound, the TGI in the assay with A549 NSCLC, in the assay on ACHN renal and in the assay with HCT-116 colon was above 100 µM each time.

For `Cc1nn(C(=O)Cc2ccccc2)c2c1C(c1ccc(/C=C/c3ccccc3)cc1)SC(N)=N2` (centres undefined), the TGI in the assay on HOP-62 NSCLC, in the assay on TK-10 renal, in the assay with LOX IMVI melanoma, in the assay with MCF7 breast, in the assay with COLO 205 colon and with SK-MEL-5 melanoma was above 100 µM each time. Further, the TGI in the assay with NCI-H23 lung, with HCC-2998 colon, in the assay with MDA-N, in the assay with HL-60(TB) leukemia, in the assay with SW-620 colon and in the assay on OVCAR-8 ovarian was above 100 µM each time. Moreover, the TGI in the assay on A549 NSCLC, in the assay with ACHN renal and in the assay with HCT-116 colon was above 100 µM each time.

On to `COC(=O)C1CC2CC1C1C2SC(F)(F)C1(F)F` (centres undefined), for which the TGI in the assay with HOP-62 NSCLC, in the assay on TK-10 renal, in the assay on LOX IMVI melanoma, in the assay on MCF7 breast, in the assay on COLO 205 colon and in the assay with SK-MEL-5 melanoma was above 100 µM in each case. The TGI in the assay on OVCAR-5 ovarian, with SR leukemia, in the assay on HCC-2998 colon, in the assay with MDA-N, with SW-620 colon and in the assay on OVCAR-8 ovarian was above 100 µM each time. Moreover, the TGI in the assay on A549 NSCLC, in the assay with ACHN renal and with HCT-116 colon was above 100 µM each time.

In the case of `COC(=O)c1sc(=S)sc1SCc1cccc(CSc2sc(=S)sc2C(=O)OC)c1`, the TGI was 67.1 µM in the assay with HOP-62 NSCLC; 96.9 µM in the assay on TK-10 renal; above 100 µM in the assay on LOX IMVI melanoma; above 100 µM with MCF7 breast; above 100 µM with COLO 205 colon; above 100 µM in the assay on SK-MEL-5 melanoma. Further, the TGI in the assay with OVCAR-5 ovarian, with SR leukemia, in the assay on NCI-H23 lung, in the assay with HCC-2998 colon, in the assay with MDA-N and in the assay with SW-620 colon was above 100 µM each time. Moreover, the TGI in the assay with OVCAR-8 ovarian, in the assay on ACHN renal and with HCT-116 colon was above 100 µM each time.

In the case of `COC(=O)c1c(C)cccc1C1CN=NC12Cc1cc(C)c(C)cc1C2=O` (centres undefined), the TGI is above 100 µM with HOP-62 NSCLC; above 100 µM in the assay on TK-10 renal; 67.9 µM in the assay with LOX IMVI melanoma; above 100 µM with MCF7 breast; above 100 µM in the assay with COLO 205 colon; 46.3 µM with SK-MEL-5 melanoma. Besides, the TGI is above 100 µM with OVCAR-5 ovarian; above 100 µM with NCI-H23 lung; above 100 µM with HCC-2998 colon; 99.5 µM in the assay with MDA-N; 45.5 µM in the assay with HL-60(TB) leukemia; above 100 µM with SW-620 colon. Moreover, the TGI in the assay on OVCAR-8 ovarian, with A549 NSCLC, in the assay on ACHN renal and in the assay with HCT-116 colon was above 100 µM throughout.

Regarding `COC(=O)C1=C(OC)C(=P2(c3ccccc3)CC(c3ccccc3)=C2c2ccccc2)C(C(=O)OC)=C1C(=O)OC` (centres undefined), the TGI in the assay with HOP-62 NSCLC was above 100 µM; in the assay on TK-10 renal, above 76 µM; in the assay on LOX IMVI melanoma, above 100 µM; in the assay on MCF7 breast, above 82.6 µM; with COLO 205 colon it was above 50.5 µM; in the assay with SK-MEL-5 melanoma, above 81.9 µM. Besides, the TGI is above 100 µM in the assay with OVCAR-5 ovarian; above 100 µM in the assay on NCI-H23 lung; above 100 µM with HCC-2998 colon; above 100 µM with MDA-N; 3.22 µM in the assay with HL-60(TB) leukemia; above 100 µM in the assay on SW-620 colon. The TGI in the assay on OVCAR-8 ovarian, in the assay on A549 NSCLC, in the assay with ACHN renal and with HCT-116 colon was above 100 µM in each case.

As to `CCOC(=O)c1cn(-c2ccc([N+](=O)[O-])cc2)c(=S)n2c1nc1ccccc12`, the TGI with HOP-62 NSCLC was above 100 µM; with LOX IMVI melanoma, above 100 µM; with MCF7 breast, above 100 µM; in the assay on COLO 205 colon it was 48.5 µM; in the assay with SK-MEL-5 melanoma, above 100 µM; in the assay with OVCAR-5 ovarian it was above 100 µM. Besides, the TGI in the assay on SR leukemia, in the assay with NCI-H23 lung, in the assay with HCC-2998 colon, in the assay with MDA-N, in the assay on SW-620 colon and with OVCAR-8 ovarian was above 100 µM each time. Besides, the TGI in the assay with A549 NSCLC, with ACHN renal and in the assay with HCT-116 colon was above 100 µM throughout.
